The test system of the series is human maximum recommended daily dose, FDA database. Nature of the series: DSSTox (FDAMDD) FDA Maximum (Recommended) Daily Dose Database. To be noted: hits give low values. A digest of the protocol:
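MRDD values come from clinical trials with daily oral dosing, usually for 3–12 months, for the average adult, in mg/day converted to mg/kg-bw/day assuming 60 kg. Antineoplastic mg/m2 doses are divided by 37. Activity score maps log10(1/MRDD mmol) onto 1–100.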

The mark [1] stands for this setting: TherapeuticCategory: antibacterial.
[2] abbreviates: TherapeuticCategory: anti inflammatory.
Where [3] appears, read: TherapeuticCategory: anthelmintic.
Setting [4] is: TherapeuticCategory: cardiotonic.
Setting [5] is: TherapeuticCategory: antineoplastic.
Where [6] appears, read: TherapeuticCategory: antihypertensive.

Turning to `CCc1nc(N)nc(N)c1-c1ccc(Cl)cc1`, the maximum recommended daily dose (mmol/kg-bw/day) (TherapeuticCategory: antimalarial) was 0.00503.
Consider `NCc1ccccc1CC(=O)N[C@@H]1C(=O)N2C(C(=O)O)=C(CSc3nnnn3CC(=O)O)CS[C@H]12`, for which, under setting [1], the maximum recommended daily dose (mmol/kg-bw/day) was 0.0641.
Regarding `NS(=O)(=O)c1cc(Cl)c(Cl)c(S(N)(=O)=O)c1`, the maximum recommended daily dose (mmol/kg-bw/day) (TherapeuticCategory: carbonic anhydrase inhibitor) was 0.0109.
With `CCCC(CCC)C(=O)O`, for the setting “TherapeuticCategory: anticonvulsant, antiepileptic”, the maximum recommended daily dose (mmol/kg-bw/day) was 0.289.
Consider `CCC(=O)c1ccc2c(c1)N(CC(C)N(C)C)c1ccccc1S2` (configuration not stated), for which the maximum recommended daily dose (mmol/kg-bw/day) (TherapeuticCategory: sedative, hypnotic) was 0.00245.
For the compound `OCCN1CCN(CCCN2c3ccccc3Sc3ccc(Cl)cc32)CC1`, the maximum recommended daily dose (mmol/kg-bw/day) (TherapeuticCategory: antipsychotic, dopamine receptor antagonist) was 0.00099.
Regarding `CC(C(=O)O)c1ccc(N2CC=CC2)c(Cl)c1` (configuration not stated), the maximum recommended daily dose (mmol/kg-bw/day) under setting [2] was 0.0528.
As to `CN1CCCN=C1/C=C/c1cccs1`, under setting [3], the maximum recommended daily dose (mmol/kg-bw/day) is 0.0969.
As to `CC(C)NCC(O)COc1ccc(O)cc1` (configuration not stated), the maximum recommended daily dose (mmol/kg-bw/day) under setting [4] is 0.00148.
On to `CN(N=O)C(=O)N[C@@H]1[C@@H](O)[C@H](O)[C@@H](CO)O[C@@H]1O`, for which the maximum recommended daily dose (mmol/kg-bw/day) under setting [5] is 0.407.
For the compound `Cc1cc(-c2ccc(N=Nc3ccc4c(S(=O)(=O)O)cc(S(=O)(=O)O)c(N)c4c3O)c(C)c2)ccc1N=Nc1ccc2c(S(=O)(=O)O)cc(S(=O)(=O)O)c(N)c2c1O`, the maximum recommended daily dose (mmol/kg-bw/day) (TherapeuticCategory: diagnostic aid) was 0.000347.
Turning to `O=NN(CCCl)C(=O)N[C@@H]1[C@@H](O)[C@H](O)[C@@H](CO)O[C@@H]1O`, the maximum recommended daily dose (mmol/kg-bw/day) under setting [5] is 0.0129.
With `C=C1C[C@@H]2[C@H](CC[C@]3(C)C(=O)CC[C@@H]23)[C@@]2(C)C=CC(=O)C=C12`, the maximum recommended daily dose (mmol/kg-bw/day) under setting [5] is 0.00135.
Consider `NCCNCCNCCN`, for which the maximum recommended daily dose (mmol/kg-bw/day) (TherapeuticCategory: chelating agent, treatmemt of Wilson's disease) is 0.228.
In the case of `CO[C@@H]1[C@@H](O[C@@H]2O[C@H](C)[C@@H](O[C@H]3C[C@@](C)(O)[C@@H](O)[C@H](C)O3)[C@H](N(C)C)[C@H]2O)[C@@H](CC=O)C[C@@H](C)[C@@H](O[C@@H]2CC[C@H](N(C)C)[C@@H](C)O2)/C=C/C=C/C[C@@H](C)OC(=O)C[C@H]1OC(C)=O`, the maximum recommended daily dose (mmol/kg-bw/day) under setting [1] was 0.0754.
Turning to `COc1cc([C@@H]2c3cc4c(cc3C(O[C@@H]3O[C@@H]5CO[C@@H](C)O[C@H]5[C@H](O)[C@H]3O)C3COC(=O)[C@@H]32)OCO4)cc(OC)c1O` (some centres not stated), the maximum recommended daily dose (mmol/kg-bw/day) under setting [5] is 0.00459.
Regarding `CNCCc1ccc(OC(=O)C(C)C)c(OC(=O)C(C)C)c1`, the maximum recommended daily dose (mmol/kg-bw/day) under setting [4] is 0.0325.
As for `C[C@]12C=CC(=O)C=C1CC[C@@H]1[C@@H]2CC[C@@]2(C)[C@H]1CC[C@]2(C)O`, the maximum recommended daily dose (mmol/kg-bw/day) (TherapeuticCategory: androgen) is 0.000222.
Take `CC1CC(OC(=O)C(O)c2ccccc2)CC(C)(C)C1` (configuration not stated): the maximum recommended daily dose (mmol/kg-bw/day) (TherapeuticCategory: vasodilator) was 0.0966.
On to `CCC[C@@H]1O[C@@H]2C[C@H]3[C@@H]4CCC5=CC(=O)C=C[C@]5(C)[C@H]4[C@@H](O)C[C@]3(C)[C@]2(C(=O)CO)O1`, for which, under setting [2], the maximum recommended daily dose (mmol/kg-bw/day) is 1.01e-05.
With `CN1CCC(CN2c3ccccc3Sc3ccccc32)C1` (configuration not stated), the maximum recommended daily dose (mmol/kg-bw/day) (TherapeuticCategory: antipruritic) was 0.00169.
With `CCCC(CCC)C(N)=O`, the maximum recommended daily dose (mmol/kg-bw/day) (TherapeuticCategory: anticonvulsant) is 0.232.
`CCC(C)(C)N=C(N)NC#N`: the maximum recommended daily dose (mmol/kg-bw/day) under setting [6] was 0.0674.
Consider `CC(=O)OCC(=O)[C@@]1(O)[C@H](C)C[C@H]2[C@@H]3C[C@H](F)C4=CC(=O)C=C[C@]4(C)[C@H]3[C@@H](O)C[C@@]21C`, for which, under “TherapeuticCategory: glucocorticoid”, the maximum recommended daily dose (mmol/kg-bw/day) was 0.000921.
With `CCCCNc1cc(C(=O)O)cc(S(N)(=O)=O)c1Oc1ccccc1`, the maximum recommended daily dose (mmol/kg-bw/day) (TherapeuticCategory: diuretic) was 0.000458.
In the case of `CCN(CC)C(=O)N1CCN(C)CC1`, the maximum recommended daily dose (mmol/kg-bw/day) under setting [3] was 0.0301.
On to `Cc1cc(C)nc(NS(=O)(=O)c2ccc(N)cc2)n1`, for which, under setting [1], the maximum recommended daily dose (mmol/kg-bw/day) is 0.18.
For the compound `C#CCN(C)Cc1ccccc1`, the maximum recommended daily dose (mmol/kg-bw/day) under setting [6] was 0.0209.
As to `NS(=O)(=O)c1cc2c(cc1Cl)NCNS2(=O)=O`, where the note is “TherapeuticCategory: diuretic”, the maximum recommended daily dose (mmol/kg-bw/day) is 0.0112.
As for `CCN1CC(CCN2CCOCC2)C(c2ccccc2)(c2ccccc2)C1=O` (configuration not stated), the maximum recommended daily dose (mmol/kg-bw/day) (TherapeuticCategory: respiratory stimulant) was 0.0106.
Regarding `CC(=O)Nc1ccccc1`, for the setting “TherapeuticCategory: antipyretic, analgesic”, the maximum recommended daily dose (mmol/kg-bw/day) is 0.037.
Consider `CC[C@H](CC[C@@H](C)[C@H]1CC[C@H]2[C@@H]3CC=C4C[C@@H](O)CC[C@]4(C)[C@H]3CC[C@]12C)C(C)C`, for which, under “TherapeuticCategory: anticholinesteremic”, the maximum recommended daily dose (mmol/kg-bw/day) is 0.241.

The values above are taken from PubChem BioAssay AID1195 (EPA DSSTox, 2008).
